From patent US20240360151A1 (SANOFI, priority 2023, published 2024)

molecular target: T1, NLRP3 inflammasome (Homo sapiens, UniProt Q96P20); assay: IL-1β secretion assay (NLRP3 IC50) in LPS-primed, nigericin-activated THP-1 cells, HTRF; format: cell-based; conditions: monocytic THP-1 cells; LPS 10 ng/mL 3 h priming, then compound + nigericin 10 μM 2 h; relative IC50, 10 concentrations, geometric mean
T1 construct: endogenous in cells; host or cells: THP-1 monocytic cells
Outline: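 IL-1β in supernatant read by HTRF after 2 h co-incubation of compound (0.1% DMSO, 10 concentrations, 1:3 series) with nigericin at 10 μM final, following 3 h LPS (10 ng/mL) priming of THP-1 monocytes at 37° C. Inhibition normalised to unactivated and no-compound controls; geometric-mean relative IC50 from 4-parameter logistic model.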

T1 sequence (Q96P20 whole entry): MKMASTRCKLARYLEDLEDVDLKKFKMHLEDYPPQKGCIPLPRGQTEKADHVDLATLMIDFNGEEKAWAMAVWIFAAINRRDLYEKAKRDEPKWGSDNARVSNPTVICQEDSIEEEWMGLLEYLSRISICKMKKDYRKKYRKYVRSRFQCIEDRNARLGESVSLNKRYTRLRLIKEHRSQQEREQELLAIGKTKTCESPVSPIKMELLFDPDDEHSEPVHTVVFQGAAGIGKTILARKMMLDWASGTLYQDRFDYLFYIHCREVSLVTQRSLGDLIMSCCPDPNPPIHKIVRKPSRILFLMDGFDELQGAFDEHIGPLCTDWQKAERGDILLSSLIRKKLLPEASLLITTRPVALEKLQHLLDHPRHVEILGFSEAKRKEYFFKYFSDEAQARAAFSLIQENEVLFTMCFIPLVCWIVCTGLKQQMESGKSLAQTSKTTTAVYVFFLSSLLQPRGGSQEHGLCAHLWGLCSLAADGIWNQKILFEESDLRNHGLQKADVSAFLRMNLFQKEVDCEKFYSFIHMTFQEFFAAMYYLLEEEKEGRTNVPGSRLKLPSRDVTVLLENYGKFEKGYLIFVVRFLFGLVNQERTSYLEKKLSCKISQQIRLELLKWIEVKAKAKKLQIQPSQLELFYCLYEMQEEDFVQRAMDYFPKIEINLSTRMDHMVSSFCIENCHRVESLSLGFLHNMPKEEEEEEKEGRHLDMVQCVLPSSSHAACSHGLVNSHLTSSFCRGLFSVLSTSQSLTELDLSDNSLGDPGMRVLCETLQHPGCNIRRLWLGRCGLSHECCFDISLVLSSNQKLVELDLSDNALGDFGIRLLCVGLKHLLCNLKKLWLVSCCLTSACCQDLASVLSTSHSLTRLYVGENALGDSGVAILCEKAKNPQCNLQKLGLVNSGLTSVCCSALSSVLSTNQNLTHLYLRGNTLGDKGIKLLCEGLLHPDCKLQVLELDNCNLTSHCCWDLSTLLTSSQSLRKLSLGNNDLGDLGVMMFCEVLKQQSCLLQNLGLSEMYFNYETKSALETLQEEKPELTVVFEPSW

| SMILES | IC50 |
| --- | --- |
| NC1CC2(CCN(c3ccc(-c4c(O)cc(Cl)cc4Cl)nn3)CC2)C1 [Example 32, 2-[6-(2-amino-7-azaspiro[3.5]nonan-7-yl)pyridazin-3-yl]-3,5-dichloro-phenol] | 3500 nM |
| CN(C)C[C@@H]1CN(c2ccc(-c3c(O)cc(Cl)cc3Cl)nn2)CCO1 [Example 43, 3,5-dichloro-2-[6-[(2R)-2-[(dimethylamino)methyl]morpholin-4-yl]pyridazin-3-yl]phenol] | 603 nM |
| OC[C@@H]1CN(c2ccc(-c3c(O)cccc3F)nn2)CCO1 [Example 44, 3-fluoro-2-[6-[(2S)-2-(hydroxymethyl)morpholin-4-yl]pyridazin-3-yl]phenol] | 862 nM |
| CN(C)C[C@@H]1CCCN(c2ccc(-c3c(O)cc(Cl)cc3Cl)nn2)C1 [Example 51, 3,5-dichloro-2-[6-[(3S)-3-[(dimethylamino)methyl]-1-piperidyl]pyridazin-3-yl]phenol] | 1050 nM |
| COC[C@H]1CCN(c2ccc(-c3c(C)cc(C)cc3O)nn2)C1 [Example 82, 2-[6-[(3S)-3-(methoxymethyl)pyrrolidin-1-yl]pyridazin-3-yl]-3,5-dimethyl-phenol] | 481 nM |
| Cc1cc(C)c(-c2ccc(N3CC4(CCC(O)CC4)C3)nn2)c(O)c1 [Example 83, 2-[6-(2-hydroxy-4,6-dimethyl-phenyl)pyridazin-3-yl]-2-azaspiro[3.5]nonan-7-ol] | 2790 nM |
| Cc1cc(C)c(-c2ccc(N3CC4(CCC(O)C4)C3)nn2)c(O)c1 (stereo not drawn) [Example 84, 2-[6-(2-hydroxy-4,6-dimethyl-phenyl)pyridazin-3-yl]-2-azaspiro[3.4]octan-6-ol] | 1770 nM |
| Cc1cc(C)c(-c2ccc(N3CC4(CCN4C)C3)nn2)c(O)c1 [Example 91, 3,5-dimethyl-2-[6-(1-methyl-1,6-diazaspiro[3.3]heptan-6-yl)pyridazin-3-yl]phenol] | 4930 nM |
| Cc1ccc(-c2ccc(N3CCO[C@H](CO)C3)nn2)c(O)c1 [Example 92, 2-[6-[(2S)-2-(hydroxymethyl)morpholin-4-yl]pyridazin-3-yl]-5-methyl-phenol] | 2200 nM |
| COc1cc(C)c(-c2ccc(N3CCO[C@H](CO)C3)nn2)c(O)c1 [Example 96, 2-[6-[(2S)-2-(hydroxymethyl)morpholin-4-yl]pyridazin-3-yl]-5-methoxy-3-methyl-phenol] | 124 nM |
| Cc1cc(N2CCO[C@H](CO)C2)nnc1-c1ccc(C(F)(F)F)cc1O [Example 97, 2-[6-[(2S)-2-(hydroxymethyl)morpholin-4-yl]-4-methyl-pyridazin-3-yl]-5-(trifluoromethyl)phenol] | 38 nM |
| Cc1cc(C)c(-c2ccc(N3CCCCC(CO)C3)nn2)c(O)c1 (stereo not drawn) [Example 107, 2-[6-[3-(hydroxymethyl)azepan-1-yl]pyridazin-3-yl]-3,5-dimethyl-phenol] | 385 nM |
| Cc1cc(C)c(-c2nnc(N3CCO[C@H](CO)C3)cc2C)c(O)c1 [Example 112, 2-[6-[(2S)-2-(hydroxymethyl)morpholin-4-yl]-4-methyl-pyridazin-3-yl]-3,5-dimethyl-phenol] | 88 nM |
| OC[C@@H]1CCN1c1ccc(-c2c(O)cc(Cl)cc2Cl)nn1 [Example 117, 3,5-dichloro-2-[6-[(2S)-2-(hydroxymethyl)azetidin-1-yl]pyridazin-3-yl]phenol] | 869 nM |
| Cc1cc(C)c(-c2ccc(N3C4CCC3COC4)nn2)c(O)c1 [Example 120, 3,5-dimethyl-2-[6-(3-oxa-8-azabicyclo[3.2.1]octan-8-yl)pyridazin-3-yl]phenol] | 2520 nM |
| Cc1cc(C)c(-c2ccc(N3CCOC[C@@H]3CN)nn2)c(O)c1 [Example 124, 2-[6-[(3S)-3-(aminomethyl)morpholin-4-yl]pyridazin-3-yl]-3,5-dimethyl-phenol] | 1050 nM |
| Cc1cc(C)c(-c2ccc(N3C[C@H]4NCCO[C@@H]4C3)nn2)c(O)c1 [Example 125, 2-[6-[(4aR,7aR)-3,4,4a,5,7,7a-hexahydro-2H-pyrrolo[3,4-b][1,4]oxazin-6-yl]pyridazin-3-yl]-3,5-dimethylphenol] | 1320 nM |
| CNC(=O)[C@@H]1CN(c2ccc(-c3c(C)cc(C)cc3O)nn2)CCO1 [Example 166, (2S)-4-[6-(2-hydroxy-4,6-dimethylphenyl)pyridazin-3-yl]-N-methylmorpholine-2-carboxamide] | 3310 nM |
| CCN1CCO[C@@H]2CN(c3ccc(-c4c(C)cc(C)cc4O)nn3)C[C@H]21 [Example 168, 2-[6-[(4aR,7aR)-4-ethyl-2,3,4a,5,7,7a-hexahydropyrrolo[3,4-b][1,4]oxazin-6-yl]pyridazin-3-yl]-3,5-dimethylphenol] | 3380 nM |

Results, then the compound that gave them:

| IC50 | SMILES |
| --- | --- |
| 893 nM | Oc1cc(Cl)cc(Cl)c1-c1ccc(N2CCC3(CC2)CC(O)C3)nn1 [Example 37, 7-[6-(2,4-dichloro-6-hydroxy-phenyl)pyridazin-3-yl]-7-azaspiro[3.5]nonan-2-ol] |
| 1040 nM | CC(=O)NC1CC2(CCN(c3ccc(-c4c(O)cc(Cl)cc4Cl)nn3)CC2)C1 [Example 47, N-[7-[6-(2,4-dichloro-6-hydroxy-phenyl)pyridazin-3-yl]-7-azaspiro[3.5]nonan-2-yl]acetamide] |
| 672 nM | Oc1cc(Cl)cc(Cl)c1-c1ccc(N2CCC(F)(F)CC2)nn1 [Example 49, 3,5-dichloro-2-[6-(4,4-difluoro-1-piperidyl)pyridazin-3-yl]phenol] |
| 549 nM | CN(C)C[C@H]1CCCN(c2ccc(-c3c(O)cc(Cl)cc3Cl)nn2)C1 [Example 50, 3,5-dichloro-2-[6-[(3R)-3-[(dimethylamino)methyl]-1-piperidyl]pyridazin-3-yl]phenol] |
| 1220 nM | CCN[C@H]1CCCN(c2ccc(-c3c(C)cc(C)cc3O)nn2)C1 [Example 68, 2-[6-[(3S)-3-(ethylamino)-1-piperidyl]pyridazin-3-yl]-3,5-dimethyl-phenol] |
| 1150 nM | COC[C@@H]1CCN(c2ccc(-c3c(C)cc(C)cc3O)nn2)C1 [Example 88, 2-[6-[(3R)-3-(methoxymethyl)pyrrolidin-1-yl]pyridazin-3-yl]-3,5-dimethyl-phenol] |
| 614 nM | Cc1cc(C)c(-c2ccc(N3CCO[C@H](CN)C3)nn2)c(O)c1 [Example 89] |
| 879 nM | Cc1cc(N2CCO[C@H](CO)C2)nnc1-c1ccc(F)cc1O [Example 93, 5-fluoro-2-[6-[(2S)-2-(hydroxymethyl)morpholin-4-yl]-4-methyl-pyridazin-3-yl]phenol] |
| > 10000 nM | Cc1ccc(O)c(-c2ccc(N3CCO[C@H](CO)C3)nn2)c1 [Example 102, 2-[6-[(2S)-2-(hydroxymethyl)morpholin-4-yl]pyridazin-3-yl]-4-methyl-phenol] |
| 335 nM | CC(=O)NC[C@H]1CN(c2ccc(-c3c(C)cc(C)cc3O)nn2)CCO1 [Example 105, N-[[(2S)-4-[6-(2-hydroxy-4,6-dimethyl-phenyl)pyridazin-3-yl]morpholin-2-yl]methyl]acetamide] |
| 174 nM | CC(=O)NC[C@@H]1CN(c2ccc(-c3c(C)cc(C)cc3O)nn2)CCO1 [Example 106, N-[[(2R)-4-[6-(2-hydroxy-4,6-dimethyl-phenyl)pyridazin-3-yl]morpholin-2-yl]methyl]acetamide] |
| 89 nM | Cc1cc(C)c(-c2cc(C)c(N3CCO[C@H](CO)C3)nn2)c(O)c1 [Example 109, 2-[6-[(2S)-2-(hydroxymethyl)morpholin-4-yl]-5-methyl-pyridazin-3-yl]-3,5-dimethyl-phenol] |
| 3760 nM | Cc1ccc(-c2cc(C)c(N3CCO[C@H](CO)C3)nn2)c(O)c1 [Example 110, 2-[6-[(2S)-2-(hydroxymethyl)morpholin-4-yl]-5-methyl-pyridazin-3-yl]-5-methyl-phenol] |
| 857 nM | Cc1cc(C)c(-c2ccc(N3C[C@@H](O)CO3)nn2)c(O)c1 [Example 113, (4R)-2-[6-(2-hydroxy-4,6-dimethyl-phenyl)pyridazin-3-yl]isoxazolidin-4-ol] |
| 958 nM | Cc1cc(C)c(-c2ccc(N3CC4(CO)CCCC3C4)nn2)c(O)c1 (stereo not drawn) [Example 114, 2-[6-[1-(hydroxymethyl)-6-azabicyclo[3.2.1]octan-6-yl]pyridazin-3-yl]-3,5-dimethyl-phenol] |
| 1540 nM | Cc1cc(C)c(-c2ccc(N3CC[C@H]3CO)nn2)c(O)c1 [Example 115, 2-[6-[(2S)-2-(hydroxymethyl)azetidin-1-yl]pyridazin-3-yl]-3,5-dimethyl-phenol] |
| 758 nM | Cc1cc(C)c(-c2ccc(N3CC[C@@H]3CO)nn2)c(O)c1 [Example 118, 2-[6-[(2R)-2-(hydroxymethyl)azetidin-1-yl]pyridazin-3-yl]-3,5-dimethyl-phenol] |
| 2020 nM | Cc1cc(C)c(-c2ccc(N3CCOC[C@H]3CN)nn2)c(O)c1 [Example 123, 2-[6-[(3R)-3-(aminomethyl)morpholin-4-yl]pyridazin-3-yl]-3,5-dimethyl-phenol; 2,2,2-trifluoroacetic acid] |
| 779 nM | Cc1cc(C)c(-c2ccc(N3CCC[C@H](N(C)C)C3)nn2)c(O)c1 [Example 128, 2-[6-[(3S)-3-(dimethylamino)-1-piperidyl]pyridazin-3-yl]-3,5-dimethyl-phenol] |
| 922 nM | Cc1cc(C)c(-c2ccc(N3CCC[C@@H](N(C)C)C3)nn2)c(O)c1 [Example 148, 2-[6-[(3R)-3-(dimethylamino)-1-piperidyl]pyridazin-3-yl]-3,5-dimethyl-phenol] |
| 5980 nM | Cc1cc(C)c(O)c(-c2ccc(N3CCO[C@H](CO)C3)nn2)c1 [Example 152, 2-[6-[(2S)-2-(hydroxymethyl)morpholin-4-yl]pyridazin-3-yl]-4,6-dimethylphenol] |
| 897 nM | Cc1cc(C)c(-c2ccc(N3C[C@H](O)CO3)nn2)c(O)c1 [Example 179, (4S)-2-[6-(2-hydroxy-4,6-dimethyl-phenyl)pyridazin-3-yl]isoxazolidin-4-ol] |
| 1390 nM | Cc1cc(C)c(-c2ccc(N3CCO[C@H](C(N)=O)C3)nn2)c(O)c1 [Example 181, (2S)-4-[6-(2-hydroxy-4,6-dimethylphenyl)pyridazin-3-yl]morpholine-2-carboxamide] |
